{"source": "patent US20260034112A1", "about": "“MULTI-CYCLIC IRAK1 AND IRAK4 INHIBITING COMPOUNDS AND USES THEREOF” (CHILDREN'S HOSPITAL MEDICAL CENTER, priority 2022, published 2026)", "test_system": "THP1 cells", "format": "cell-based, human", "details": "CA-4948 vs DMSO in THP1 cells"}
{"smiles": "Cc1cc(-c2nc(C(=O)Nc3cc4oc(N5CCOCC5)nc4nc3N3CC[C@@H](O)C3)co2)ccn1", "note": "[CA-4948, emavusertib]", "values": [{"measurement": "Log(FC) of gene FAM57B", "value": 0.9462}, {"measurement": "Log(FC) of gene FAM229A", "value": 0.8452}, {"measurement": "Log(FC) of gene FBXO15", "value": "−0.5977"}, {"measurement": "Log(FC) of gene FCRLB", "value": 1.162}, {"measurement": "Log(FC) of gene FFAR4", "value": 0.5911}, {"measurement": "Log(FC) of gene FLJ31945", "value": "−0.9544"}, {"measurement": "Log(FC) of gene FLJ45513", "value": 1.668}, {"measurement": "Log(FC) of gene GALR2", "value": 0.6354}, {"measurement": "Log(FC) of gene GAS6-AS1", "value": 0.6025}, {"measurement": "Log(FC) of gene GDPD3", "value": 0.695}, {"measurement": "Log(FC) of gene GIPR", "value": 0.6177}, {"measurement": "Log(FC) of gene GJC2", "value": 0.7031}, {"measurement": "Log(FC) of gene GNMT", "value": 1.408}, {"measurement": "Log(FC) of gene GP9", "value": 0.8031}, {"measurement": "Log(FC) of gene GPR3", "value": "−0.5921"}, {"measurement": "Log(FC) of gene GPR113", "value": 0.7578}, {"measurement": "Log(FC) of gene GPR135", "value": 0.8057}, {"measurement": "Log(FC) of gene GPR158", "value": "−0.6058"}, {"measurement": "Log(FC) of gene GSDMB", "value": 0.7698}, {"measurement": "Log(FC) of gene GSTM2", "value": 0.7484}, {"measurement": "Log(FC) of gene GUCA1B", "value": 1.348}, {"measurement": "Log(FC) of gene HHLA3", "value": 0.7796}, {"measurement": "Log(FC) of gene HLA-F-AS1", "value": 0.5961}, {"measurement": "Log(FC) of gene HPD", "value": 0.6253}, {"measurement": "Log(FC) of gene HSPA7", "value": 0.9538}, {"measurement": "Log(FC) of gene ID3", "value": 0.6893}, {"measurement": "Log(FC) of gene IGFBP3", "value": "−0.9606"}, {"measurement": "Log(FC) of gene IGFBP7-AS1", "value": 0.9516}, {"measurement": "Log(FC) of gene IL8", "value": "−0.7139"}, {"measurement": "Log(FC) of gene IL9R", "value": 1.002}, {"measurement": "Log(FC) of gene IL10RB-AS1", "value": 0.6103}, {"measurement": "Log(FC) of gene IPO9-AS1", "value": 0.7271}, {"measurement": "Log(FC) of gene ITIH4", "value": 1.233}, {"measurement": "Log(FC) of gene KCND1", "value": 0.5935}, {"measurement": "Log(FC) of gene KCNIP3", "value": "−0.6151"}, {"measurement": "Log(FC) of gene KIAA1324", "value": 0.7793}, {"measurement": "Log(FC) of gene KRBA2", "value": "−0.8123"}, {"measurement": "Log(FC) of gene LAMC3", "value": 0.6855}, {"measurement": "Log(FC) of gene LDLRAD4", "value": 0.7569}, {"measurement": "Log(FC) of gene LHPP", "value": 1.078}, {"measurement": "Log(FC) of gene LINC00337", "value": 0.6329}, {"measurement": "Log(FC) of gene LINC00641", "value": 0.8241}, {"measurement": "Log(FC) of gene LINC00893", "value": 0.737}, {"measurement": "Log(FC) of gene LINC00959", "value": 0.7922}, {"measurement": "Log(FC) of gene LOC155060", "value": 0.6346}, {"measurement": "Log(FC) of gene LOC284889", "value": 0.8366}, {"measurement": "Log(FC) of gene LOC644961", "value": 0.6222}, {"measurement": "Log(FC) of gene LOC728715", "value": 0.6401}, {"measurement": "Log(FC) of gene LOC728752", "value": 0.7225}, {"measurement": "Log(FC) of gene LOC100128494", "value": 0.9913}, {"measurement": "Log(FC) of gene LOC100129924", "value": 1.019}, {"measurement": "Log(FC) of gene LOC100130698", "value": "−1.064"}, {"measurement": "Log(FC) of gene LOC100130705", "value": 0.845}, {"measurement": "Log(FC) of gene LOC100133091", "value": 0.5851}, {"measurement": "Log(FC) of gene LOC100134868", "value": 0.8444}, {"measurement": "Log(FC) of gene LOC100288069", "value": 0.6928}, {"measurement": "Log(FC) of gene LOC100288102", "value": "−0.6006"}, {"measurement": "Log(FC) of gene LOC100505771", "value": 0.7704}, {"measurement": "Log(FC) of gene LOC100506083", "value": 0.8144}, {"measurement": "Log(FC) of gene LOC100506100", "value": 0.8985}, {"measurement": "Log(FC) of gene LOC100506472", "value": 0.7649}, {"measurement": "Log(FC) of gene LOC100506518", "value": 0.7779}, {"measurement": "Log(FC) of gene LOC100506548", "value": 1.108}, {"measurement": "Log(FC) of gene LOC100507373", "value": 0.7784}, {"measurement": "Log(FC) of gene LOC100507424", "value": 1.26}, {"measurement": "Log(FC) of gene LOC100507462", "value": 0.6976}, {"measurement": "Log(FC) of gene LOC101927085", "value": "−0.6948"}, {"measurement": "Log(FC) of gene LOC101927119", "value": 0.6408}, {"measurement": "Log(FC) of gene LOC101927895", "value": 0.6379}, {"measurement": "Log(FC) of gene LOC101927910", "value": 1.281}, {"measurement": "Log(FC) of gene LOC101927974", "value": 0.7679}, {"measurement": "Log(FC) of gene LOC101928038", "value": 0.8781}, {"measurement": "Log(FC) of gene LOC101928055", "value": 0.8595}, {"measurement": "Log(FC) of gene LOC101928710", "value": 0.5901}, {"measurement": "Log(FC) of gene LOC101928830", "value": 0.7631}, {"measurement": "Log(FC) of gene LOC101929046", "value": 0.6794}, {"measurement": "Log(FC) of gene LOC101929054", "value": 0.589}, {"measurement": "Log(FC) of gene LOC101929112", "value": 0.5992}]}
